Tests used:
MAPKAPK2 (human) = MAPKAPK2 (human) (UniProt P49137); test: radiometric filter-binding kinase assay; conditions: ATP 20 µM
SRPK1 (human) = SRPK1 (human) (UniProt Q96SB4); test: radiometric filter-binding kinase assay; conditions: ATP 50 µM
PIM1 (human) = PIM1 (human) (UniProt P11309); test: radiometric filter-binding kinase assay; conditions: ATP 20 µM
MAPK13 (human) = MAPK13 (human) (UniProt O15264); test: radiometric filter-binding kinase assay; conditions: ATP 5 µM
MAPK1 (human) = MAPK1 (human) (UniProt P28482); test: radiometric filter-binding kinase assay
Sequence of MAPK1 (human) (P28482 whole entry, looked up): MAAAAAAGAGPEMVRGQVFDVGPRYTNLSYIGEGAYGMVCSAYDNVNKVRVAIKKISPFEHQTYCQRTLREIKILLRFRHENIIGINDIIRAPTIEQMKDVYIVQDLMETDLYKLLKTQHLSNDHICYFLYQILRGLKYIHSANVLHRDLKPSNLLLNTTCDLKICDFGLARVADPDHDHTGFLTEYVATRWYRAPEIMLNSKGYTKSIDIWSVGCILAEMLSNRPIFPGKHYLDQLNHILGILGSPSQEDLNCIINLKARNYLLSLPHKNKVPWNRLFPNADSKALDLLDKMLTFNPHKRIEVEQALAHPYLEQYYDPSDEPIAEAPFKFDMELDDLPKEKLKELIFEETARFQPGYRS

IGF1R (human) = IGF1R (human) (UniProt P08069); test: radiometric filter-binding kinase assay; conditions: ATP 5 µM
RPS6KB2 (human) = RPS6KB2 (human) (UniProt Q9UBS0); test: radiometric filter-binding kinase assay; conditions: ATP 100 µM
ROCK2 (rat) = test: radiometric filter-binding kinase assay; conditions: ATP 20 µM, accession and sequence are those of the human protein
LCK (mouse) = test: radiometric filter-binding kinase assay; conditions: ATP 50 µM, accession and sequence are those of the human protein
NEK2 (human) = NEK2 (human) (UniProt P51955); test: radiometric filter-binding kinase assay; conditions: ATP 50 µM
PRKACA (human) = PRKACA (human) (UniProt P17612); test: radiometric filter-binding kinase assay; conditions: ATP 20 µM
PRKCA (human) = PRKCA (human) (UniProt P17252); test: radiometric filter-binding kinase assay; conditions: ATP 20 µM
PIM3 (human) = PIM3 (human) (UniProt Q86V86); test: radiometric filter-binding kinase assay; conditions: ATP 20 µM
DYRK2 (human) = DYRK2 (human) (UniProt Q92630); test: radiometric filter-binding kinase assay; conditions: ATP 50 µM
AURKB (human) = AURKB (human) (UniProt Q96GD4); test: radiometric filter-binding kinase assay; conditions: ATP 20 µM
FGFR1 (human) = FGFR1 (human) (UniProt P11362); test: radiometric filter-binding kinase assay; conditions: ATP 20 µM
MAPK11 (human) = MAPK11 (human) (UniProt Q15759); test: radiometric filter-binding kinase assay; conditions: ATP 20 µM
RPS6KA1 KD1 KD2 (human) = RPS6KA1 KD1 KD2 (human) (UniProt Q15418); test: radiometric filter-binding kinase assay; conditions: ATP 100 µM
Sequence of RPS6KA1 KD1 KD2 (human) (Q15418 whole entry, looked up): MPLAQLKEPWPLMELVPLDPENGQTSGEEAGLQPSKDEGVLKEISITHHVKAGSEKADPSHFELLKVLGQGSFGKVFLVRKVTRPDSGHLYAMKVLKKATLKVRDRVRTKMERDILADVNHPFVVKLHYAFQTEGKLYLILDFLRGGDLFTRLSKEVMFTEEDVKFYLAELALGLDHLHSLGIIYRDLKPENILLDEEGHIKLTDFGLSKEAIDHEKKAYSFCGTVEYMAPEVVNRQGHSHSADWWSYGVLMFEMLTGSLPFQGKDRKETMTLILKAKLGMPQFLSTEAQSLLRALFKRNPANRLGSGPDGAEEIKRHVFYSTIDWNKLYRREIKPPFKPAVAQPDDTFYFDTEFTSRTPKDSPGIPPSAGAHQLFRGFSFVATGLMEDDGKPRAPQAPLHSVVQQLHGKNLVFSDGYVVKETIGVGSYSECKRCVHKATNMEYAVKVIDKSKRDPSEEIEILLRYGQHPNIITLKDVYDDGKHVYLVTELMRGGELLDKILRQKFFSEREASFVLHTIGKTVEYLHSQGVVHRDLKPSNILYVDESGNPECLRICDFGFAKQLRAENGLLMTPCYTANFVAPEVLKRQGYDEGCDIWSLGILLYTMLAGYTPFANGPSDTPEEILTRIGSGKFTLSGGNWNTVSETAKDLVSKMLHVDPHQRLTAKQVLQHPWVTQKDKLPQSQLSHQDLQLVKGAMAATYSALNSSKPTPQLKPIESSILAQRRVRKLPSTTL

HIPK2 (human) = HIPK2 (human) (UniProt Q9H2X6); test: radiometric filter-binding kinase assay; conditions: ATP 5 µM
Sequence of HIPK2 (human) (Q9H2X6 whole entry, looked up): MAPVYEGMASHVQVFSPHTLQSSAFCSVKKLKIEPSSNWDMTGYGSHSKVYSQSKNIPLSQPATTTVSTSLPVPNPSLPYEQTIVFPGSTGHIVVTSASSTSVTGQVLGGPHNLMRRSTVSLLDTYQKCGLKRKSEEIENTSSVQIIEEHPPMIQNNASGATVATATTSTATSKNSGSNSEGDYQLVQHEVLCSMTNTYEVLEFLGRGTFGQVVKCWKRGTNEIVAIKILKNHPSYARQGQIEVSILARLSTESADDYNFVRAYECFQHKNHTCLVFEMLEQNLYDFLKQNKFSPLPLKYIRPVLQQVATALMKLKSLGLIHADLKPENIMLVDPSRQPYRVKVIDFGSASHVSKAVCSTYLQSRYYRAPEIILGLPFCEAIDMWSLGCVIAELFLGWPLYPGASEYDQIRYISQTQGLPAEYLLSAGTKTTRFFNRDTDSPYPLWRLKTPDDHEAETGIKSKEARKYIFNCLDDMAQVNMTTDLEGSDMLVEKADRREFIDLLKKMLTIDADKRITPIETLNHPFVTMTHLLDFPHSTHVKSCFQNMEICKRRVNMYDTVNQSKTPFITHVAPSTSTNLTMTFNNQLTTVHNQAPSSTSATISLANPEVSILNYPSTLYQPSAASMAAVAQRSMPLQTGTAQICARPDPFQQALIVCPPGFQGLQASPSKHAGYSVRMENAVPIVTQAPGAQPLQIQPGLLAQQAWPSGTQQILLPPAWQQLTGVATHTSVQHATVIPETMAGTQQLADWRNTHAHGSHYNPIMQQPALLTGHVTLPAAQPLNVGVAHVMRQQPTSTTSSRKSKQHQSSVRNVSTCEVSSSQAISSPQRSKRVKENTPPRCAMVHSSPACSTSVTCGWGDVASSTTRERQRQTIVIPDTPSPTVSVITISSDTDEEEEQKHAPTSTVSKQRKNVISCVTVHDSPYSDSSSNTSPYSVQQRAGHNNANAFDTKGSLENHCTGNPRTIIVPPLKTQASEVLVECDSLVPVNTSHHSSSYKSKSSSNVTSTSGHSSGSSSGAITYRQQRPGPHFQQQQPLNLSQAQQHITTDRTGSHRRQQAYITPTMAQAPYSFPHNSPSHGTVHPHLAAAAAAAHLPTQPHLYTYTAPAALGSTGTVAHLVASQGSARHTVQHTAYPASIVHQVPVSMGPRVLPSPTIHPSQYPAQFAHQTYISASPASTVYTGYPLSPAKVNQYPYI

BRSK2 (human) = BRSK2 (human) (UniProt Q8IWQ3); test: radiometric filter-binding kinase assay; conditions: ATP 50 µM
[1] = system: AKT2 (human), P31751 [S474D]; test: radiometric filter-binding kinase assay; conditions: ATP 50 µM
Sequence of AKT2 (human), P31751 [S474D] (P31751 whole entry S474D, looked up): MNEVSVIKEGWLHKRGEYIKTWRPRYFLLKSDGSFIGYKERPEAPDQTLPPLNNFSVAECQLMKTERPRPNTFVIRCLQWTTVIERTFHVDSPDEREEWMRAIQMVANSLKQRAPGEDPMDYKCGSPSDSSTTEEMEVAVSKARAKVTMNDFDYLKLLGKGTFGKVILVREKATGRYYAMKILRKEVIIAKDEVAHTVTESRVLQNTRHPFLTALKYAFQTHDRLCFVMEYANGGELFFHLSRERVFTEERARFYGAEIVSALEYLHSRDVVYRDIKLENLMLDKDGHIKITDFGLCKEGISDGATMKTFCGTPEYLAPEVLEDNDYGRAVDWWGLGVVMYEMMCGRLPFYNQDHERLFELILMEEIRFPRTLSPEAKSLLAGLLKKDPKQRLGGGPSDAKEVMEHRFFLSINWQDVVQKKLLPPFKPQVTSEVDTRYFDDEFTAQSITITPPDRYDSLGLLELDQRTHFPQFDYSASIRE

SPHK2 (human) = SPHK2 (human) (UniProt Q9NRA0); test: ADP detection assay-Luminescence; conditions: ATP 1 µM
DGKB (human) = DGKB (human) (UniProt Q9Y6T7); test: ADP detection assay-Luminescence
SPHK1 (human) = SPHK1 (human) (UniProt Q9NYA1); test: ADP detection assay-Luminescence; conditions: ATP 10 µM
PIK3CA PIK3R1 (human) = PIK3CA PIK3R1 (human) (UniProt P27986+P42336); test: ADP detection assay-Luminescence; conditions: ATP 1000 µM
PIK3CG (human) = PIK3CG (human) (UniProt P48736); test: ADP detection assay-Luminescence
PIK3CB PIK3R1 (human) = PIK3CB PIK3R1 (human) (UniProt P27986+P42338); test: ADP detection assay-Luminescence; conditions: ATP 1000 µM
CHKA (human) = CHKA (human) (UniProt P35790); test: ADP detection assay-Luminescence; conditions: ATP 1 µM
PIP4K2A (human) = PIP4K2A (human) (UniProt P48426); test: ADP detection assay-Luminescence

Sequence of SRPK1 (human) (Q96SB4 whole entry, looked up): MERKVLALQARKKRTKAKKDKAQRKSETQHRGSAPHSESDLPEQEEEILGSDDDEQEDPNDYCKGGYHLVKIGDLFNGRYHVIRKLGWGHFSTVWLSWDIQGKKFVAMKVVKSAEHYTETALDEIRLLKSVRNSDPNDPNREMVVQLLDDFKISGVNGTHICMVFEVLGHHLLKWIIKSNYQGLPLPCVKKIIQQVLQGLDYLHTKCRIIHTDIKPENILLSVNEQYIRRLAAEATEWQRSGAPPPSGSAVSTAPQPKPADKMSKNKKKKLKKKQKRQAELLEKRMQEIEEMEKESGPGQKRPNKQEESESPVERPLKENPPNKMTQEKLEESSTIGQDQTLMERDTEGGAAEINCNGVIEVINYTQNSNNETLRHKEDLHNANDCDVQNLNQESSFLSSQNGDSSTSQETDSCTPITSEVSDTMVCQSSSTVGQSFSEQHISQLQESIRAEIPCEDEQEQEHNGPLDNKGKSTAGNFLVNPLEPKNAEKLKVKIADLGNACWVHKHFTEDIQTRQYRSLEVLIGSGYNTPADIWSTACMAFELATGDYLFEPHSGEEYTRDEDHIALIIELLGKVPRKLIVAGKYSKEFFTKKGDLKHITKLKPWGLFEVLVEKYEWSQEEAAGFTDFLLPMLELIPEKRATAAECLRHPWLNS
Sequence of PIM1 (human) (P11309 whole entry, looked up): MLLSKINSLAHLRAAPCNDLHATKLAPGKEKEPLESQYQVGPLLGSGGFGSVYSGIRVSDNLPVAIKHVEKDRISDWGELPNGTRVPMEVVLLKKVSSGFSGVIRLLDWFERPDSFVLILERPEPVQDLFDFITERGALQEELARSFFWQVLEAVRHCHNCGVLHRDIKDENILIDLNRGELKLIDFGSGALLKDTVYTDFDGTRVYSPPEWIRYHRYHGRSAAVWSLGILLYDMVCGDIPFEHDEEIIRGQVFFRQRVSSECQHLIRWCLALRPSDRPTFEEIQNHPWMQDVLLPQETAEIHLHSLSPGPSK
Sequence of MAPKAPK2 (human) (P49137 whole entry, looked up): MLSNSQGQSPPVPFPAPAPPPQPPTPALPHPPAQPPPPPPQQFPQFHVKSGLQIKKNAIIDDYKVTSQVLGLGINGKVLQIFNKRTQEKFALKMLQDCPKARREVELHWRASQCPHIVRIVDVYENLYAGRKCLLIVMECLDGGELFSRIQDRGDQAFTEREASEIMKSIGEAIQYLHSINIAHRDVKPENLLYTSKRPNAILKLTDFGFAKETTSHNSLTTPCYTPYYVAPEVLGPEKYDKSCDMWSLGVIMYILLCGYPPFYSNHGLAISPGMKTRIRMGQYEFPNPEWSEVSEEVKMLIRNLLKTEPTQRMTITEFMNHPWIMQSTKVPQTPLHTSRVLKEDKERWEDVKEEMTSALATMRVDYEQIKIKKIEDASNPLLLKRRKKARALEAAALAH

residual activity (MAPKAPK2 (human); compound 0.1 µM): 88%
residual activity (MAPKAPK2 (human); compound 1.0 µM): 105%
residual activity (MAPKAPK2 (human); compound 10.0 µM): 78%
residual activity (SRPK1 (human); compound 0.1 µM): 108%
residual activity (SRPK1 (human); compound 1.0 µM): 106%
residual activity (SRPK1 (human); compound 10.0 µM): 101%
residual activity (PIM1 (human); compound 0.1 µM): 88%
residual activity (PIM1 (human); compound 1.0 µM): 90%
residual activity (PIM1 (human); compound 10.0 µM): 78%
residual activity (MAPK13 (human); compound 0.1 µM): 89%
residual activity (MAPK13 (human); compound 1.0 µM): 82%
residual activity (MAPK13 (human); compound 10.0 µM): 91%
residual activity (MAPK1 (human); compound 0.1 µM, ATP 5 µM): 88%
residual activity (MAPK1 (human); compound 0.1 µM, ATP 50 µM): 93%
residual activity (MAPK1 (human); compound 1.0 µM, ATP 5 µM): 96%
residual activity (MAPK1 (human); compound 1.0 µM, ATP 50 µM): 85%
residual activity (MAPK1 (human); compound 10.0 µM, ATP 5 µM): 77%
residual activity (MAPK1 (human); compound 10.0 µM, ATP 50 µM): 86%
residual activity (IGF1R (human); compound 0.1 µM): 72%
residual activity (IGF1R (human); compound 1.0 µM): 95%
residual activity (IGF1R (human); compound 10.0 µM): 82%
IC50 (RPS6KB2 (human)): 65 µM
residual activity (ROCK2 (rat); compound 0.1 µM): 98%
residual activity (ROCK2 (rat); compound 1.0 µM): 91%
residual activity (ROCK2 (rat); compound 10.0 µM): 58%
residual activity (LCK (mouse); compound 0.1 µM): 91%
residual activity (LCK (mouse); compound 1.0 µM): 92%
residual activity (LCK (mouse); compound 10.0 µM): 88%
residual activity (NEK2 (human); compound 0.1 µM): 95%
residual activity (NEK2 (human); compound 1.0 µM): 94%
residual activity (NEK2 (human); compound 10.0 µM): 91%
residual activity (PRKACA (human); compound 0.1 µM): 84%
residual activity (PRKACA (human); compound 1.0 µM): 83%
residual activity (PRKACA (human); compound 10.0 µM): 34%
residual activity (PRKCA (human); compound 0.1 µM): 119%
residual activity (PRKCA (human); compound 1.0 µM): 106%
residual activity (PRKCA (human); compound 10.0 µM): 62%
residual activity (PIM3 (human); compound 0.1 µM): 93%
residual activity (PIM3 (human); compound 1.0 µM): 88%
residual activity (PIM3 (human); compound 10.0 µM): 83%
residual activity (DYRK2 (human); compound 0.1 µM): 97%
residual activity (DYRK2 (human); compound 1.0 µM): 104%
residual activity (DYRK2 (human); compound 10.0 µM): 101%
residual activity (AURKB (human); compound 0.1 µM): 89%
residual activity (AURKB (human); compound 1.0 µM): 87%
residual activity (AURKB (human); compound 10.0 µM): 49%
residual activity (FGFR1 (human); compound 0.1 µM): 91%
residual activity (FGFR1 (human); compound 1.0 µM): 92%
residual activity (FGFR1 (human); compound 10.0 µM): 63%
residual activity (MAPK11 (human); compound 0.1 µM): 88%
residual activity (MAPK11 (human); compound 1.0 µM): 89%
residual activity (MAPK11 (human); compound 10.0 µM): 97%
IC50 (RPS6KA1 KD1 KD2 (human)): 4.7 µM
residual activity (RPS6KA1 KD1 KD2 (human); compound 0.1 µM): 85%
residual activity (RPS6KA1 KD1 KD2 (human); compound 1.0 µM): 83%
residual activity (RPS6KA1 KD1 KD2 (human); compound 10.0 µM): 33%
residual activity (HIPK2 (human); compound 0.1 µM): 108%
residual activity (HIPK2 (human); compound 1.0 µM): 86%
residual activity (HIPK2 (human); compound 10.0 µM): 88%
residual activity (BRSK2 (human); compound 0.1 µM): 88%
residual activity (BRSK2 (human); compound 1.0 µM): 84%
residual activity (BRSK2 (human); compound 10.0 µM): 83%
residual activity ([1]; compound 0.1 µM): 74%
residual activity ([1]; compound 1.0 µM): 73%
residual activity ([1]; compound 10.0 µM): 60%
residual activity (SPHK2 (human); compound 1.0 µM): 100%
residual activity (SPHK2 (human); compound 10.0 µM): 98%
residual activity (DGKB (human); compound 1.0 µM): 98%
residual activity (DGKB (human); compound 10.0 µM): 99%
residual activity (SPHK1 (human); compound 1.0 µM): 99%
residual activity (SPHK1 (human); compound 10.0 µM): 103%
residual activity (PIK3CA PIK3R1 (human); compound 1.0 µM): 107%
residual activity (PIK3CA PIK3R1 (human); compound 10.0 µM): 117%
residual activity (PIK3CG (human); compound 1.0 µM): 101%
residual activity (PIK3CG (human); compound 10.0 µM): 102%
residual activity (PIK3CB PIK3R1 (human); compound 1.0 µM): 103%
residual activity (PIK3CB PIK3R1 (human); compound 10.0 µM): 115%
residual activity (CHKA (human); compound 1.0 µM): 98%
residual activity (CHKA (human); compound 10.0 µM): 94%
residual activity (PIP4K2A (human); compound 1.0 µM): 101%
residual activity (PIP4K2A (human); compound 10.0 µM): 100%
Compound: CCc1cncnc1N1CCN(Cc2nc3cc(C(F)(F)F)ccc3[nH]2)CC1

From the kinase profiling compilation of Christmann-Franck et al. (2016)
